Results from PubChem BioAssay AID248 (DTP/NCI, 2004).
Inconclusive results and toxic doses are left out. Cut-off read from the data, not from the text of the source: active = T/C of 150% or more; inactive = T/C below 125%.

Test system: L1210 leukemia ip in BDF1 mice, survival T/C
Assay: NCI In Vivo Anticancer Drug Screen. Data for tumor model L1210 Leukemia (intraperitoneal) in B6D2F1 (BDF1) mice
Conditions: endpoint: mean survival time, higher = longer survival
Method in brief: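 Ratio derived from survival: compound-dosed mice over vehicle-dosed mice, all bearing a transplantable tumor.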

[1] = dose: 100.0 mg/kg/injection, schedule: Q01DX009 (ip), vehicle: Klucel (hydroxypropylcellulose) (HPC)
[2] = dose: 200.0 mg/kg/injection, schedule: Q01DX009 (ip), vehicle: Klucel (hydroxypropylcellulose) (HPC)
[3] = dose: 400.0 mg/kg/injection, schedule: Q01DX009 (ip), vehicle: Klucel (hydroxypropylcellulose) (HPC)
[4] = dose: 100.0 mg/kg/injection, schedule: Q01DX001 (ip), vehicle: saline
[5] = dose: 200.0 mg/kg/injection, schedule: Q01DX001 (ip), vehicle: saline
[6] = dose: 400.0 mg/kg/injection, schedule: Q01DX001 (ip), vehicle: saline
[7] = dose: 100.0 mg/kg/injection, schedule: Q04DX003 (ip), vehicle: saline with Tween-80
[8] = dose: 100.0 mg/kg/injection, schedule: Q04DX002 (ip), vehicle: Klucel (hydroxypropylcellulose) (HPC)
[9] = dose: 200.0 mg/kg/injection, schedule: Q04DX002 (ip), vehicle: Klucel (hydroxypropylcellulose) (HPC)
[10] = dose: 100.0 mg/kg/injection, schedule: Q04DX003 (ip), vehicle: Klucel (hydroxypropylcellulose) (HPC)
[11] = dose: 200.0 mg/kg/injection, schedule: Q04DX003 (ip), vehicle: Klucel (hydroxypropylcellulose) (HPC)
[12] = dose: 400.0 mg/kg/injection, schedule: Q04DX003 (ip), vehicle: Klucel (hydroxypropylcellulose) (HPC)
[13] = dose: 50.0 mg/kg/injection, schedule: Q01DX009 (ip), vehicle: saline
[14] = dose: 100.0 mg/kg/injection, schedule: Q01DX009 (ip), vehicle: saline
[15] = dose: 100.0 mg/kg/injection, schedule: Q04DX003 (ip), vehicle: saline
[16] = dose: 200.0 mg/kg/injection, schedule: Q04DX003 (ip), vehicle: saline

Measured: T/C

O=[N+]([O-])c1cccc(OCCCOc2ccccc2)c1
inactive: dose: 100.0 mg/kg/injection, schedule: Q01DX009 (ip), vehicle: other 100 % of control | dose: 200.0 mg/kg/injection, schedule: Q01DX009 (ip), vehicle: other 92 % of control | dose: 400.0 mg/kg/injection, schedule: Q01DX009 (ip), vehicle: other 103 % of control

Cc1ccc(NC(=O)Oc2ccc(C(C)(C)C)cc2)cc1NC(=O)Oc1ccc(C(C)(C)C)cc1
inactive: [1] 97 % of control | [2] 105 % of control | [3] 100 % of control

N=C1c2ccccc2-c2nc3ccccc3c(=Nc3ccccc3C(=O)O)n21
inactive: dose: 100.0 mg/kg/injection, schedule: Q04DX002 (ip), vehicle: saline 89 % of control | dose: 200.0 mg/kg/injection, schedule: Q04DX002 (ip), vehicle: saline 86 % of control | dose: 400.0 mg/kg/injection, schedule: Q04DX002 (ip), vehicle: saline 89 % of control

CCOC(=O)/C(=C/c1ccc(OC)cc1)P(=O)(OCC)OCC
inactive: dose: 50.0 mg/kg/injection, schedule: Q01DX001 (ip), vehicle: saline 91 % of control | [4] 91 % of control | [5] 103 % of control | [6] 95 % of control

CCCCCCC(C(C(C)=O)C(C)=O)C(C(C)=O)C(C)=O
inactive: [7] 91 % of control | dose: 200.0 mg/kg/injection, schedule: Q04DX003 (ip), vehicle: saline with Tween-80 93 % of control

CCCCCCCCCCCCCC(CCC)CCC
inactive: [4] 94 % of control | [5] 96 % of control | [6] 94 % of control

CC(=O)OC1C2OC3C=C(C)CCC3(CO)C(C)(C1OC(C)=O)C21CO1 (centres undefined)
inactive: dose: 0.8 mg/kg/injection, schedule: Q01DX009 (ip), vehicle: other 107 % of control | dose: 1.6 mg/kg/injection, schedule: Q01DX009 (ip), vehicle: other 111 % of control | dose: 6.4 mg/kg/injection, schedule: Q01DX009 (ip), vehicle: other 95 % of control

COc1ccc(-c2cc(-c3ccccc3)[nH]c(=O)c2N(C)C)cc1
inactive: dose: 100.0 mg/kg/injection, schedule: Q01DX001 (ip), vehicle: carboxymethylcellulose (CMC) 97 % of control | dose: 200.0 mg/kg/injection, schedule: Q01DX001 (ip), vehicle: carboxymethylcellulose (CMC) 91 % of control | dose: 400.0 mg/kg/injection, schedule: Q01DX001 (ip), vehicle: carboxymethylcellulose (CMC) 97 % of control

O=S1(=O)CC2(C1)OCCO2
inactive: [8] 94 % of control | [9] 94 % of control

OCCSc1ccccc1
inactive: dose: 100.0 mg/kg/injection, schedule: Q04DX003 (ip), vehicle: other 97 % of control | dose: 200.0 mg/kg/injection, schedule: Q04DX003 (ip), vehicle: other 103 % of control | dose: 400.0 mg/kg/injection, schedule: Q04DX003 (ip), vehicle: other 93 % of control

O=C(Nc1ccccc1F)c1ccc(Cl)c(Cl)c1
inactive: [10] 98 % of control | [2] 92 % of control | [11] 96 % of control | [3] 86 % of control | [12] 93 % of control

CCOC(=O)C1CCCN(S(=O)(=O)c2ccc(C)cc2)c2ccccc2C1=O (centres undefined)
inactive: [10] 93 % of control | [11] 102 % of control | [12] 94 % of control

CCNc1ccccc1-c1nc2ccccc2[nH]1
inactive: dose: 50.0 mg/kg/injection, schedule: Q01DX009 (ip), vehicle: Klucel (hydroxypropylcellulose) (HPC) 93 % of control | [1] 100 % of control | [2] 102 % of control

COC(=O)c1c(I)cccc1[N+](=O)[O-]
inactive: [1] 92 % of control | [10] 97 % of control | [2] 91 % of control | [11] 103 % of control | [3] 96 % of control | [12] 97 % of control

CCCCCC(O)C1C(=O)OC(C)C(O)/C=C/C=C/C=C/C=C/C=C(\C)C(O)C(O)C(O)CC(O)CC(O)CC(O)CC(O)CC1O (centres undefined)
inactive: dose: 0.5 mg/kg/injection, schedule: Q01DX001 (ip), vehicle: saline 97 % of control | dose: 1.0 mg/kg/injection, schedule: Q01DX001 (ip), vehicle: saline 97 % of control | dose: 2.0 mg/kg/injection, schedule: Q01DX001 (ip), vehicle: saline 95 % of control | dose: 4.0 mg/kg/injection, schedule: Q01DX001 (ip), vehicle: saline 92 % of control | dose: 8.0 mg/kg/injection, schedule: Q01DX001 (ip), vehicle: saline 97 % of control

CCCC(C)(C)C(=O)Nc1cccc(OC(=O)NC(C)C)c1
inactive: dose: 100.0 mg/kg/injection, schedule: Q01DX009 (ip), vehicle: saline with Tween-80 96 % of control | dose: 200.0 mg/kg/injection, schedule: Q01DX009 (ip), vehicle: saline with Tween-80 86 % of control | dose: 400.0 mg/kg/injection, schedule: Q01DX009 (ip), vehicle: saline with Tween-80 91 % of control

CC(Cl)CNC(C)C (centres undefined)
inactive: [4] 103 % of control | [5] 92 % of control | [6] 103 % of control

CN(C)C1(Cc2ccccc2)c2ccccc2-c2ccccc21
inactive: dose: 50.0 mg/kg/injection, schedule: Q04DX002 (ip), vehicle: Klucel (hydroxypropylcellulose) (HPC) 103 % of control | [8] 106 % of control | [9] 95 % of control

Cc1cc(OCc2nc(N)nc(N)c2-c2ccc(Cl)c(Cl)c2)ccc1NC(=O)c1cc(S(=O)(=O)F)ccc1Cl
inactive: dose: 100.0 mg/kg/injection, schedule: Q01DX001 (ip), vehicle: saline with Tween-80 98 % of control | dose: 200.0 mg/kg/injection, schedule: Q01DX001 (ip), vehicle: saline with Tween-80 93 % of control | dose: 400.0 mg/kg/injection, schedule: Q01DX001 (ip), vehicle: saline with Tween-80 97 % of control

CC(C)n1cc2c(N)ncnc2n1
inactive: [13] 117 % of control | [4] 96 % of control | [14] 104 % of control | [15] 103 % of control | [5] 104 % of control | [16] 108 % of control | [6] 100 % of control | dose: 400.0 mg/kg/injection, schedule: Q04DX003 (ip), vehicle: saline 100 % of control

Cc1c(C)c2c(c(C)c1O)CCC(C)(CCCC(C)CCCC(C)CCCC(C)C)O2 (centres undefined)
inactive: dose: 31.2 mg/kg/injection, schedule: Q01DX009 (ip), vehicle: carboxymethylcellulose (CMC) 107 % of control | dose: 62.5 mg/kg/injection, schedule: Q01DX009 (ip), vehicle: carboxymethylcellulose (CMC) 101 % of control | [7] 91 % of control | dose: 125.0 mg/kg/injection, schedule: Q01DX009 (ip), vehicle: carboxymethylcellulose (CMC) 100 % of control | dose: 202.0 mg/kg/injection, schedule: Q04DX003 (ip), vehicle: saline with Tween-80 91 % of control | dose: 250.0 mg/kg/injection, schedule: Q01DX009 (ip), vehicle: carboxymethylcellulose (CMC) 100 % of control | dose: 400.0 mg/kg/injection, schedule: Q04DX003 (ip), vehicle: saline with Tween-80 93 % of control

c1ccc(C(c2ccccc2)C2CCCCC2)cc1
inactive: [10] 87 % of control | [11] 90 % of control

CNc1ccccc1C(N)=S
inactive: [13] 111 % of control | dose: 50.0 mg/kg/injection, schedule: Q04DX003 (ip), vehicle: saline 106 % of control | [14] 97 % of control | [15] 105 % of control | dose: 200.0 mg/kg/injection, schedule: Q01DX009 (ip), vehicle: saline 101 % of control | [16] 105 % of control

CC1(C)N=C(N)N=C(N)N1c1ccc(CCCCc2cccc(S(=O)(=O)F)c2)c(Cl)c1
inactive: dose: 6.25 mg/kg/injection, schedule: Q01DX009 (ip), vehicle: saline with Tween-80 106 % of control | dose: 12.5 mg/kg/injection, schedule: Q01DX009 (ip), vehicle: saline with Tween-80 104 % of control | dose: 25.0 mg/kg/injection, schedule: Q01DX009 (ip), vehicle: saline with Tween-80 113 % of control
